According to ChEMBL document CHEMBL5543108, “Structure-based design and synthesis of BML284 derivatives: A novel class of colchicine-site noncovalent tubulin degradation agents” (Eur J Med Chem, 2024):

Legend:
[1] = tested on: MOLM-13; assay: Antiproliferative activity against human MOLM-13 cells assessed as reduction in cell viability measured after 72 hrs; type: functional, cell-based; details: MOLM-13, 72 h
[2] = tested on: A2780/Taxol; assay: Antitumor activity against human A2780T cells xenografted in mouse model assessed as tumor growth inhibition at 30 mg/kg, ip administered every two days for 18 days relative to control; type: functional; details: 432 h, time 18 day, read-out: TGI
[3] = tested on: K562; assay: Antiproliferative activity against human K562 cells assessed as reduction in cell viability measured after 72 hrs; type: functional, cell-based; details: K562, 72 h
[4] = tested on: A549/TR; assay: Antiproliferative activity against paclitaxel resistant human A549T cells assessed as reduction in cell viability measured after 72 hrs; type: functional, cell-based
[5] = tested on: MCF7; assay: cells; details: Homo sapiens, MCF7, 72 h
Description: Antiproliferative activity against human MCF7 cells assessed as reduction in cell viability measured after 72 hrs

[6] = tested on: A2780/Taxol; assay: Antiproliferative activity against human A2780T cells assessed as reduction in cell viability measured after 72 hrs; type: functional, cell-based
[7] = tested on: A2780S; assay: Antitumor activity against human A2780S cells xenografted in mouse model assessed as tumor growth inhibition at 30 mg/kg, ip administered every two days for 12 days relative to control; type: functional; details: 288 h, time 12 day, read-out: TGI

IC50 [1]: 4 nM
IC50 [3]: 15 nM
IC50 [4]: 834 nM
IC50 [5]: 31.5 nM
IC50 [6]: 55900 nM
SMILES: CC(=O)O[C@H]1C(=O)[C@@]2(C)[C@H]([C@H](OC(=O)c3ccccc3)[C@]3(O)C[C@H](OC(=O)[C@H](O)[C@@H](NC(=O)c4ccccc4)c4ccccc4)C(C)=C1C3(C)C)[C@]1(OC(C)=O)CO[C@@H]1C[C@@H]2O [PACLITAXEL]
inhibition in vivo at 30 mg/kg [2]: 23.2%
inhibition in vivo at 30 mg/kg [7]: 74.6%
